Eleven molecules from patent US20260183275A1, “SUBSTITUTED QUINOLONE COMPOUNDS USEFUL AS INHIBITORS OF TLR9” (Bristol-Myers Squibb Company, priority 2022, published 2026) can be followed below.

Common to all, as to assay type: cell-based
One assay addresses T1, human TLR7 (Homo sapiens, UniProt Q9NYK1).
T1 construct: host or cells: HEK-Blue cells
T1 sequence (Q9NYK1 27-1049): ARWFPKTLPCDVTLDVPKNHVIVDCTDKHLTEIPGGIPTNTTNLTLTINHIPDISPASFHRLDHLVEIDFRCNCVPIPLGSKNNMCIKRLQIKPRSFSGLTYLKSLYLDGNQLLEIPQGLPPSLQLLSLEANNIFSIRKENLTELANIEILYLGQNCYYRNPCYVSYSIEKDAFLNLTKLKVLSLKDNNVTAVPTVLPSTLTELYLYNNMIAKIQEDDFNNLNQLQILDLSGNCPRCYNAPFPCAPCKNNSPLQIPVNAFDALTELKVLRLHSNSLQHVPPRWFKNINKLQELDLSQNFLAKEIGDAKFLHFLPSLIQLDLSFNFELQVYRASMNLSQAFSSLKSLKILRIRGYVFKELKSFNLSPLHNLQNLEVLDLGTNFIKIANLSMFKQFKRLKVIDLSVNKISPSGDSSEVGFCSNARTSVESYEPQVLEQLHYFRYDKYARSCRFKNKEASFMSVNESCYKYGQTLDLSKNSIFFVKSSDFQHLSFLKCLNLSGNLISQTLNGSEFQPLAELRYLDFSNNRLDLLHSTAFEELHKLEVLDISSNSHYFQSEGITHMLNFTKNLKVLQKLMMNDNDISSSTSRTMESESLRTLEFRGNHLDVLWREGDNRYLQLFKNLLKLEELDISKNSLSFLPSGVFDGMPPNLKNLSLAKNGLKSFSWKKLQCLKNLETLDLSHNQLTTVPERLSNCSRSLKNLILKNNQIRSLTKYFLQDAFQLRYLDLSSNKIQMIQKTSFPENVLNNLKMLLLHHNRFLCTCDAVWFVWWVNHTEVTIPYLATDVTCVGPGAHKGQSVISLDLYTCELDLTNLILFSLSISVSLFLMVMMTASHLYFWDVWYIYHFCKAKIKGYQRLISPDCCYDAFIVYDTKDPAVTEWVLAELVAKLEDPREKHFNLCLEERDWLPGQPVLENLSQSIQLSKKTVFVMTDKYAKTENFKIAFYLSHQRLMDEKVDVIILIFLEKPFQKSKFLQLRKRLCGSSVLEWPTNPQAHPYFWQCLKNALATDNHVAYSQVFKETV
Put plainly: TLR7 inhibition reporter assay (HEK-Blue cells, SEAP reporter). Particulars: HEK-Blue cells overexpressing human TLR7; stimulated with gardiquimod 7.5 μM; SEAP read after 22 hour; dose range 0.05 nM-50 μM. The method, then: (§1) HEK-Blue™-cells (Invivogen) overexpressing human TLR7, TLR8 or TLR9 receptors were used for screening inhibitors of these receptors using an inducible SEAP (secreted embryonic alkaline phosphatase) reporter gene under the control of the IFN-β minimal promoter fused to five NF-κB and AP-1-binding sites. Briefly, cells are seeded into Greiner 384 well plates (15000 cells per well for TLR7, 20,000 for TLR8 and 25,000 for TLR9) and then treated with test compounds in DMSO to yield a final dose response concentration range of 0.05 nM-50 μM. After a 30 minute compound pre-treatment at room temperature, the cells are then stimulated with a TLR7 ligand (gardiquimod at a final concentration of 7.5 μM), TLR8 ligand (R848 at a final concentration of 15.9 μM) or TLR9 ligand (ODN2006 at a final concentration of 5 nM) to activate NF-κB and AP-1 which induce the production of SEAP. After a 22 hour incubation at 37° C., 5% CO2, SEAP levels are determined with the addition of HEK-Blue™ Detection reagent (Invivogen), a cell culture medium that allows for detection of SEAP, according to manufacturer's specifications. The percent inhibition is determined as the % reduction in the HEK-Blue signal present in wells treated with agonist plus DMSO alone compared to wells treated with a known inhibitor.
A general note: Reporter assays use an easily measured gene product as a stand-in for the process of interest.

Another assay deals with T2, human TLR9 (Homo sapiens, UniProt Q9NR96).
T2 construct: host or cells: HEK-Blue cells
T2 sequence (Q9NR96 26-1032): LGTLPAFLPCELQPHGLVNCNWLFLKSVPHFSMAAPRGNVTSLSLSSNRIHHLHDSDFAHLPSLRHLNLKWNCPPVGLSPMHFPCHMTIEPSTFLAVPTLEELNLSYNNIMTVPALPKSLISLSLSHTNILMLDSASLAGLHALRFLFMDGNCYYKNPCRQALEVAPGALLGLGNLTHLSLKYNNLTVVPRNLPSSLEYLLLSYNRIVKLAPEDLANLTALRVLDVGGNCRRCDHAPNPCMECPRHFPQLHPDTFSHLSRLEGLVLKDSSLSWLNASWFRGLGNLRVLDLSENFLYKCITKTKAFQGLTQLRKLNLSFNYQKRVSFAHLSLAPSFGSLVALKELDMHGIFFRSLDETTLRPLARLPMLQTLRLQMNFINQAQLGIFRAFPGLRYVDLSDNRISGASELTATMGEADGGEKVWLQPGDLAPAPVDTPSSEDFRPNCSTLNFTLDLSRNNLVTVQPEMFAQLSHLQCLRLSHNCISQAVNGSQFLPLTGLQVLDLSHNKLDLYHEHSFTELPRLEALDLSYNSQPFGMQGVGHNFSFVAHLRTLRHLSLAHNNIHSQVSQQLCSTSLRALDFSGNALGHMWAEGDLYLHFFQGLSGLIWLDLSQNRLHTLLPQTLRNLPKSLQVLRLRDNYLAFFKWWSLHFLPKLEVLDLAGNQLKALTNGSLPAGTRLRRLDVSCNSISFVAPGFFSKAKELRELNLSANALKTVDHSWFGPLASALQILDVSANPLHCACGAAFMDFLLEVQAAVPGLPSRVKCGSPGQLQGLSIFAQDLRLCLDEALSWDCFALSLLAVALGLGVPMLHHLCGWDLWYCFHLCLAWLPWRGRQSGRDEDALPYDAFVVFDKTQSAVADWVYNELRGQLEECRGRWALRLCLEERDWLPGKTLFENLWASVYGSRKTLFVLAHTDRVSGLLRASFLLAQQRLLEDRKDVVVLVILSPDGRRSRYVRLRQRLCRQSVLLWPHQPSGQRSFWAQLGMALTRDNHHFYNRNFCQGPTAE
The assay is described as follows: TLR9 inhibition reporter assay (HEK-Blue cells, SEAP reporter). The note with it: HEK-Blue cells overexpressing human TLR9; stimulated with ODN2006 5 nM; SEAP read after 22 hour; dose range 0.05 nM-50 μM. The protocol:
as §1

For the next assay, the target named is T3, human TLR8 (Homo sapiens, UniProt Q9NR97).
T3 construct: host or cells: HEK-Blue cells
T3 sequence (Q9NR97 27-1041): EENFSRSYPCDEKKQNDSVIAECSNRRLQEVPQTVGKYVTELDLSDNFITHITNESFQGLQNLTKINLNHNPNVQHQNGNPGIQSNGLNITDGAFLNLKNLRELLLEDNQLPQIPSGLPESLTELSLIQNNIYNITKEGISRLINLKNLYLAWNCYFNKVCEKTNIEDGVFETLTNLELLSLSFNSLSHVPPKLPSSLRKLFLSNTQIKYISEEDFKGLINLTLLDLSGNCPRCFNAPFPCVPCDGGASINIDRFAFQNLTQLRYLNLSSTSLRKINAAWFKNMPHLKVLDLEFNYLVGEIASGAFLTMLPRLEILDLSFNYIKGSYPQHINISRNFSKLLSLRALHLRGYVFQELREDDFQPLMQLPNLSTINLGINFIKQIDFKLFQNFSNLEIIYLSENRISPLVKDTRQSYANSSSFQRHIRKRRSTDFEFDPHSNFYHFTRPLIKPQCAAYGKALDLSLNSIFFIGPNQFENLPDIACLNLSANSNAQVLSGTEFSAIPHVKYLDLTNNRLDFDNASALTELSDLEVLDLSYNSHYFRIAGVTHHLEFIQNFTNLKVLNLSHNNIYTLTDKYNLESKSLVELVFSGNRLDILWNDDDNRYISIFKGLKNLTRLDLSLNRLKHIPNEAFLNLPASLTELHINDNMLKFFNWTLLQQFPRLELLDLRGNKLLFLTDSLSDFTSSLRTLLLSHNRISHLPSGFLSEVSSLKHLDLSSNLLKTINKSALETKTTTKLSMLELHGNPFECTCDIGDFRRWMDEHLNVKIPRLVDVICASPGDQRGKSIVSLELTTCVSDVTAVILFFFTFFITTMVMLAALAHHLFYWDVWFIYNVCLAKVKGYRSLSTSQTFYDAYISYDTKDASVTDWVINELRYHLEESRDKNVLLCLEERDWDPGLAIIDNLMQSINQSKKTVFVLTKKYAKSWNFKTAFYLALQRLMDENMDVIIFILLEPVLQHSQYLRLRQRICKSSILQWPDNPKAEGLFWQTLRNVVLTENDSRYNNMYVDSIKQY
The assay is described as follows: TLR8 inhibition reporter assay (HEK-Blue cells, SEAP reporter). The note with it: HEK-Blue cells overexpressing human TLR8; stimulated with R848 15.9 μM; SEAP read after 22 hour; dose range 0.05 nM-50 μM. The protocol:
as §1

Usually IC50 stands for the concentration that inhibits the measured activity by half. Lower therefore signals inhibition by little substance. In the case of `CC(C)N1CCC(c2ccc(-c3ccc4[nH]c(=O)c(-c5ccc6nccnc6c5)cc4c3)cc2)CC1` [Example 93, 6-{4-[1-(propan-2-yl)piperidin-4-yl]phenyl}-3-(quinoxalin-6yl)-1,2-dihydroquinolin-2-one], the half-maximal inhibitory concentration (IC50) amounted to 1870 nM against human TLR7, 651 nM on human TLR9 and 49.8 µM at human TLR8.

Consider `CC(C)N1CCN(c2ccc(-c3ccc4[nH]c(=O)c(-c5nn(C)c6ccccc56)cc4c3)cc2)CC1` [Example 35, 3-(1-methyl-1H-indazol-3-yl)-6-{4-[4-(propan-2-yl)piperazin-1-yl]phenyl}-1,2-dihydroquinolin-2-one], for which the IC50 at human TLR7 was found to be 1290 nM; on human TLR9 it was 314 nM; against human TLR8 it was 14.1 µM.

For the molecule `N#Cc1cccc(-c2cc3cc(-c4ccc(C5CCN(C6COC6)CC5)cc4)ccc3[nH]c2=O)c1` [Example 99, 3-(6-{4-[1-(oxetan-3-yl)piperidin-4-yl]phenyl}-2-oxo-1,2-dihydroquinolin-3-yl) benzonitrile], the IC50 against human TLR7 was 16700 nM; at human TLR9, 1650 nM; against human TLR8 it was no less than 50 µM.

As for `CC(C)N1CCN(c2ccc(-c3ccc4[nH]c(=O)c(-c5ccccc5NS(C)(=O)=O)cc4c3)cc2)CC1` [Example 29, N-[2-(2-oxo-6-{4-[4-(propan-2-yl)piperazin-1-yl]phenyl}-1,2-dihydroquinolin-3-yl)phenyl]methanesulfonamide], the 50% inhibitory concentration (IC50) on human TLR7 is 5860 nM; against human TLR9 it was 275 nM; at human TLR8 it was 1.83 µM.

With `CC(C)N1CCN(c2ccc(-c3ccc4[nH]c(=O)c(-c5ccc(C(=O)N(C)C6COC6)cc5)cc4c3)cc2)CC1` [Example 13, N-methyl-N-(oxetan-3-yl)-4-(2-oxo-6-{4-[4-(propan-2-yl)piperazin-1-yl]phenyl}-1,2-dihydroquinolin-3-yl)benzamide], the figures for the IC50 against human TLR7, against human TLR9 and against human TLR8 were 4890 nM, 122 nM and no less than 50 µM, respectively.

Regarding `CN1CCC(c2ccc3[nH]c(=O)c(-c4ccc(S(C)(=O)=O)cc4)cc3c2)CC1` [Example 97, 3-(4-methanesulfonylphenyl)-6-(1-methylpiperidin-4-yl)-1,2-dihydroquinolin-2-one], the IC50 was 2510 nM at human TLR7, 960 nM against human TLR9 and 20.1 µM on human TLR8.

Consider `CC(C)N1CCN(c2ccc(Nc3ccc4[nH]c(=O)c(-c5ccc(S(C)(=O)=O)cc5)cc4c3)cc2)CC1` [Example 90, 3-(4-methanesulfonylphenyl)-6-({4-[4-(propan-2-yl)piperazin-1-yl]phenyl}amino)-1,2-dihydroquinolin-2-one], for which the values for the IC50 against human TLR7, against human TLR9 and at human TLR8 were 3090 nM, 493 nM and no less than 50 µM, respectively.

Consider `CN1CCC(c2ccc(-c3ccc4c(c3)cc(-c3ccc(S(C)(=O)=O)cc3)c(=O)n4C)cc2)CC1` [Example 78, 3-(4-methanesulfonylphenyl)-1-methyl-6-[4-(1-methylpiperidin-4-yl)phenyl]-1,2-dihydroquinolin-2-one], for which the IC50 on human TLR7 came to 2120 nM; on human TLR9 it was 286 nM; at human TLR8 it was 2.26 µM.

Turning to `CC(C)N1CCN(c2ccc(-c3ccc4[nH]c(=O)c(-c5ccc(C(=O)N6CCCC6(C)C)cc5)cc4c3)cc2)CC1` [Example 19, 3-[4-(2,2-dimethylpyrrolidine-1-carbonyl)phenyl]-6-{4-[4-(propan-2-yl)piperazin-1-yl]phenyl}-1,2-dihydroquinolin-2-one], the IC50 on human TLR7 was 2400 nM; on human TLR9 it was 200 nM; at human TLR8, no less than 50 µM.

On to `CC(C)N1CCN(c2ccc(-c3ccc4[nH]c(=O)c(-c5cncnc5)cc4c3)cc2)CC1` [Example 34, 6-{4-[4-(propan-2-yl)piperazin-1-yl]phenyl}-3-(pyrimidin-5-yl)-1,2-dihydroquinolin-2-one], for which the figures for the IC50 on human TLR7 and against human TLR9 were 1080 nM and 307 nM, respectively.

For `CC(C)N1CCC(c2ccc(-c3ccc4[nH]c(=O)c(-c5ccc(N(C)C)cc5)cc4c3)cc2)CC1` [Example 88, 3-[4-(dimethylamino)phenyl]-6-{4-[1-(propan-2-yl)piperidin-4-yl]phenyl}-1,2-dihydroquinolin-2-one], the IC50 worked out at 449 nM on human TLR9 and 0.118 µM at human TLR8.
